Experimental data from patent US4428942A, “Analogs of somatostatin” (The Salk Institute for Biological Studies, priority 1982, dated 1984).
Like-named read-outs stand apart in the source and are kept apart here. Bridge positions count the residues as written; N and C are the ends. Square brackets hold non-standard residues; d marks the D form. Peptide text beside a SMILES is read from it.

Tests used:
[1] = test system: release of growth hormone induced by isobutyl methyl xanthine in pituitary cells; format: cell-based, rat
Procedure: To determine the effectiveness of the peptides to inhibit the release of growth hormone, in vitro radioimmunoassays are carried out using the SS analogs in side-by-side comparison with equimolar concentrations of somatostatin-14 having a known effectiveness to inhibit the release of growth hormone induced by the application of isobutyl methyl xanthine to pituitary cells. Cultures are used which include cells of rat pituitary glands removed some four to five days previously in a system that minimizes enzymatic degradation, generally following the procedure set forth in Vale et al., Methods in Enzymology, Hormones and Cyclic Nucleotides (1975) Vol. 37, p. 82. Both cultures of a defined standard medium and cultures which are considered optimal for the secretion of growth hormone, as a result of having additions of either 2% or 10% of serum from a foetal calf, are used for the comparative testing.

[2] = test system: secretion of insulin; settings: in vivo
Procedure: (§1) In vivo experiments are carried out with the analogs, using the procedure described in Brown et al., Metabolism (1976) Vol. 25, pp. 1501-1503, to determine the potency, relative to somatostatin-14, to inhibit the secretion of glucagon and insulin stimulated by the administration of arginine to groups of six rats.

[3] = test system: secretion of glucagon; set-up: species or system rats; settings: in vivo
Procedure: as §1

[4] = test system: isolated rabbit ileum
Procedure: The analogs are tested in vitro in isolated rabbit ileum using the modified Ussing chamber technique, as described in Amer. J. of Physiol., 225:776-780 (1973). Unidirectional chloride fluxes are determined and used to characterize bi-directional fluxes following the addition of an SS-analog. Changes are measured with varying concentrations, and the potency to inhibit ion transport is quantitated and expressed as a percentage of the potency of SS-14.

[5] = isolated rabbit ileum, Ussing chamber, chloride fluxes, SS-14 = 100
[6] = cultured rat pituitary cells, isobutyl methyl xanthine-induced release, SS-14 = 100
[7] = arginine-stimulated, rats, SS-14 = 100

Row | Molecule | GH (potency for the inhibition of GH release relative to SS-14) [1] | Insulin (potency to inhibit insulin secretion relative to SS-14) ([2]; rat) | Glucagon (potency to inhibit glucagon secretion relative to SS-14) ([3]; rat) | Ion Transport (potency to inhibit ion transport expressed as a percentage of the potency of SS-14) [4] | Ion Transport (potency to inhibit ion transport expressed as a percentage of the potency of SS-14) [4, 5] | GH (potency for the inhibition of GH release relative to SS-14) [1, 6] | Insulin (potency to inhibit insulin secretion relative to SS-14) [2, 7] | Glucagon (potency to inhibit glucagon secretion relative to SS-14) [3, 7]
1 | C[C@H](N)C(=O)NCC(=O)N[C@H]1CSSC[C@@H](C(=O)O)NC(=O)[C@H](CO)NC(=O)[C@H]([C@@H](C)O)NC(=O)[C@H]([C@@H](C)O)NC(=O)[C@H](CCCCN)NC(=O)[C@H](Cc2c[nH]c3ccccc23)NC(=O)[C@H](Cc2ccccc2)NC(=O)[C@H](Cc2ccccc2)NC(=O)[C@H](CC(N)=O)NC(=O)[C@H](CCCCN)NC1=O [Peptide 8, des-Phe^11 --SS] (H-AGCKNFFWKTTSC-OH; disulfide 3-13) | 2% | < 1% | < 1% | 34% |  |  |  | 
2 | C[C@H](N)C(=O)NCC(=O)N[C@H]1CSSC[C@@H](C(=O)O)NC(=O)[C@H]([C@@H](C)O)NC(=O)[C@H](Cc2ccccc2)NC(=O)[C@H]([C@@H](C)O)NC(=O)[C@H](CCCCN)NC(=O)[C@H](Cc2c[nH]c3ccccc23)NC(=O)[C@H](Cc2ccccc2)NC(=O)[C@H](Cc2ccccc2)NC(=O)[C@H](CC(N)=O)NC(=O)[C@H](CCCCN)NC1=O [Peptide 14, des-Ser^13 --SS] (H-AGCKNFFWKTFTC-OH; disulfide 3-13) | 2% | < 1% | < 1% | 9% |  |  |  | 
3 | C[C@H](N)C(=O)NCC(=O)N[C@H]1CSSC[C@@H](C(=O)O)NC(=O)[C@H](CO)NC(=O)[C@H]([C@@H](C)O)NC(=O)[C@H](CCCNC(=N)N)NC(=O)[C@H]([C@@H](C)O)NC(=O)[C@H](CCCCN)NC(=O)[C@H](Cc2c[nH]c3ccccc23)NC(=O)[C@H](Cc2ccccc2)NC(=O)[C@H](Cc2ccccc2)NC(=O)[C@H](CC(N)=O)NC(=O)[C@H](CCCCN)NC1=O [Peptide 2, [Arg^11]--SS] (H-AGCKNFFWKTRTSC-OH; disulfide 3-14) |  | 142% | < 1% | 291% |  |  |  | 
4 | des-AA^1,2,[β-Nal^11 ]--SS [Peptide 11] |  |  |  |  | 107% |  |  | 
5 | C[C@@H](O)[C@@H]1NC(=O)[C@H](Cc2ccccc2)NC(=O)[C@H]([C@@H](C)O)NC(=O)[C@H](CCCCN)NC(=O)[C@H](Cc2c[nH]c3ccccc23)NC(=O)[C@H](Cc2ccccc2)NC(=O)[C@H](Cc2ccccc2)NC(=O)[C@H](CC(N)=O)NC(=O)[C@H](CCCCN)NC(=O)[C@@H](N)CSSC[C@@H](C(=O)O)NC(=O)[C@H](CO)NC1=O [Peptide 9, des-Ala^1,Gly^2 --SS] (H-CKNFFWKTFTSC-OH; disulfide 1-12) |  |  |  |  | 231% | 60% | 61% | 
6 | C[C@@H](O)[C@@H]1NC(=O)[C@H](Cc2c[nH]c3ccccc23)NC(=O)[C@H]([C@@H](C)O)NC(=O)[C@H](CCCCN)NC(=O)[C@H](Cc2c[nH]c3ccccc23)NC(=O)[C@H](Cc2ccccc2)NC(=O)[C@H](Cc2ccccc2)NC(=O)[C@H](CC(N)=O)NC(=O)[C@H](CCCCN)NC(=O)[C@@H](N)CSSC[C@@H](C(=O)O)NC(=O)[C@H](CO)NC1=O [Peptide 3, des-AA^1,2,[Trp^11]--SS] (H-CKNFFWKTWTSC-OH; disulfide 1-12) |  |  |  | 405% |  |  |  | 
7 | C[C@H](N)C(=O)NCC(=O)N[C@H]1CSSC[C@@H](C(=O)O)NC(=O)[C@H](CO)NC(=O)[C@H]([C@@H](C)O)NC(=O)[C@H](CCC(=O)O)NC(=O)[C@H]([C@@H](C)O)NC(=O)[C@H](CCCCN)NC(=O)[C@H](Cc2c[nH]c3ccccc23)NC(=O)[C@H](Cc2ccccc2)NC(=O)[C@H](Cc2ccccc2)NC(=O)[C@H](CC(N)=O)NC(=O)[C@H](CCCCN)NC1=O [Peptide 12, [Glu^11]--SS] (H-AGCKNFFWKTETSC-OH; disulfide 3-14) |  | < 1% | < 1% | 9% |  |  |  | 
8 | C[C@H](N)C(=O)NCC(=O)N[C@H]1CSSC[C@@H](C(=O)O)NC(=O)[C@H](CO)NC(=O)[C@H]([C@@H](C)O)NC(=O)[C@H](Cc2ccccc2)NC(=O)[C@H]([C@@H](C)O)NC(=O)[C@H](CCCCN)NC(=O)[C@H](Cc2c[nH]c3ccccc23)NC(=O)[C@H](Cc2ccccc2)NC(=O)[C@@H](Cc2ccccc2)NC(=O)[C@H](CC(N)=O)NC(=O)[C@H](CCCCN)NC1=O [Peptide 16, [D-Phe^6]--SS] |  |  |  |  | 10% | 5% | < 1% | < 1%
9 | C[C@H](N)C(=O)NCC(=O)N[C@H]1CSSC[C@@H](C(=O)O)NC(=O)[C@H](CO)NC(=O)[C@H]([C@@H](C)O)NC(=O)[C@H](C)NC(=O)[C@H]([C@@H](C)O)NC(=O)[C@H](CCCCN)NC(=O)[C@H](Cc2c[nH]c3ccccc23)NC(=O)[C@H](Cc2ccccc2)NC(=O)[C@H](Cc2ccccc2)NC(=O)[C@H](CC(N)=O)NC(=O)[C@H](CCCCN)NC1=O [Peptide 5, [Ala^11]--SS] (H-AGCKNFFWKTATSC-OH; disulfide 3-14) | 3% | < 10% |  | 52% |  |  |  | 
10 | C[C@@H](O)[C@@H]1NC(=O)[C@H](CCCCN)NC(=O)[C@@H](Cc2c[nH]c3ccccc23)NC(=O)[C@H](Cc2ccccc2)NC(=O)[C@H](Cc2ccccc2)NC(=O)[C@@H](N)CSSC[C@@H](C(=O)O)NC(=O)[C@H](CO)NC(=O)[C@H](Cc2c[nH]c3ccccc23)NC1=O [Peptide 4, des-AA^1,2,4,5,12,[D-Trp^8,Trp^11]--SS] (H-CFF[dW]KTWSC-OH; disulfide 1-9) |  |  |  | 37% |  |  |  | 
11 | C[C@@H](O)[C@@H]1NC(=O)[C@H](CCCCN)NC(=O)[C@@H](Cc2c[nH]c3ccccc23)NC(=O)[C@H](Cc2ccccc2)NC(=O)[C@H](Cc2ccccc2)NC(=O)[C@@H](N)CSSC[C@@H](C(=O)O)NC(=O)[C@H](CO)NC(=O)[C@H](Cc2ccccc2)NC1=O [Peptide 6, des-AA^1,2,4,5,12,[D-Trp^8]--SS] (H-CFF[dW]KTFSC-OH; disulfide 1-9) | 45% | 70% | 20% | 257% |  |  |  | 
12 | C[C@H](N)C(=O)NCC(=O)N[C@H]1CSSC[C@@H](C(=O)O)NC(=O)[C@H](CO)NC(=O)[C@H]([C@@H](C)O)NC(=O)[C@H](Cc2ccccc2)NC(=O)[C@H]([C@@H](C)O)NC(=O)[C@H](CCCCN)NC(=O)[C@H](Cc2c[nH]c3ccccc23)NC(=O)[C@H](Cc2ccccc2)NC(=O)[C@H](Cc2ccccc2)NC(=O)[C@H](CC(N)=O)NC(=O)[C@H](CCCCN)NC1=O [SS-14, somatostatin] |  |  |  |  | 100% | 100% | 100% | 100%
13 | C[C@H](N)C(=O)NCC(=O)N[C@H]1CSSC[C@@H](C(=O)O)NC(=O)[C@H](CO)NC(=O)[C@H]([C@@H](C)O)NC(=O)[C@H](Cc2c[nH]cn2)NC(=O)[C@H]([C@@H](C)O)NC(=O)[C@H](CCCCN)NC(=O)[C@H](Cc2c[nH]c3ccccc23)NC(=O)[C@H](Cc2ccccc2)NC(=O)[C@H](Cc2ccccc2)NC(=O)[C@H](CC(N)=O)NC(=O)[C@H](CCCCN)NC1=O [Peptide 10, [His^11]--SS] (H-AGCKNFFWKTHTSC-OH; disulfide 3-14) |  | < 1% | < 1% | 48% |  |  |  | 
14 | C[C@H](N)C(=O)NCC(=O)N[C@H]1CSSC[C@@H](C(=O)O)NC(=O)[C@H](CO)NC(=O)[C@H]([C@@H](C)O)NC(=O)[C@H](Cc2ccccc2)NC(=O)[C@H]([C@@H](C)O)NC(=O)[C@H](CCCCN)NC(=O)[C@H](Cc2c[nH]c3ccccc23)NC(=O)[C@H](Cc2ccccc2)NC(=O)[C@H](Cc2ccccc2)NC(=O)[C@H](CC(N)=O)NC(=O)[C@@H](CCCCN)NC1=O [Peptide 15, [D-Lys^4]--SS] |  |  |  |  | 139% | 22% | 1% | 1%
